Laboratory results: patent US20170326125A1, “MULTISUBSTITUTED AROMATIC COMPOUNDS AS INHIBITORS OF THROMBIN” (VERSEON CORPORATION, priority 2016, published 2017)

target: T1, Human thrombin (Homo sapiens, UniProt P00734); test: Inhibition of the protease activity of thrombin (chromogenic substrate S-2238); format: biochemical; conditions: Table C; 3 nM thrombin, 125 μM S-2238, 10 min pre-incubation, RT
T1 construct: purchased Haematologic Technologies Inc

Row | IC50 [nM] | Structure (SMILES)
1 | > 1000 | COc1ccccc1CNc1nc(-c2cccnc2)nn1C(=O)C(C)C [Cmpd 305, 1-(5-[(2-methoxyphenyl)methyl]amino-3-(pyridin-3-yl)-1H-1,2,4-triazol-1-yl)-2-methylpropan-1-one]
2 | < 100 | CC(C)C(=O)n1nc(-c2cccnc2)nc1NCc1ccc(Cl)cc1 [Cmpd 306, 1-(5-[(4-chlorophenyl)methyl]amino-3-(pyridin-3-yl)-1H-1,2,4-triazol-1-yl)-2-methylpropan-1-one]
3 | < 100 | CC(=O)n1nc(-c2cccnc2)nc1NCc1ccc(Cl)cc1 [Cmpd 307, 1-(5-[(4-chlorophenyl)methyl]amino-3-(pyridin-3-yl)-1H-1,2,4-triazol-1-yl)ethan-1-one]
4 | < 100 | CCC(=O)n1nc(-c2cccnc2)nc1NCc1ccc(Cl)cc1 [Cmpd 308, 1-(5-[(4-chlorophenyl)methyl]amino-3-(pyridin-3-yl)-1H-1,2,4-triazol-1-yl)propan-1-one]
5 | < 100 | CC(C)(C)C(=O)n1nc(-c2ccco2)nc1NCc1ccc(F)cc1 [Cmpd 309, 1-(5-[(4-fluorophenyl)methyl]amino-3-(furan-2-yl)-1H-1,2,4-triazol-1-yl)-2,2-dimethylpropan-1-one]
6 | < 100 | CC(C)C(=O)n1nc(-c2ccco2)nc1NCc1ccc(F)cc1 [Cmpd 310, 1-(5-[(4-fluorophenyl)methyl]amino-3-(furan-2-yl)-1H-1,2,4-triazol-1-yl)-2-methylpropan-1-one]
7 | > 1000 | COCC(=O)n1nc(-c2cccnc2)nc1NCc1ccc(F)cc1 [Cmpd 311, 1-(5-[(4-fluorophenyl)methyl]amino-3-(pyridin-3-yl)-1H-1,2,4-triazol-1-yl)-2-methoxyethan-1-one]
8 | < 100 | CC(C)C(=O)n1nc(-c2cccnc2)nc1NCc1ccc(F)cc1 [Cmpd 312, 1-(5-[(4-fluorophenyl)methyl]amino-3-(pyridin-3-yl)-1H-1,2,4-triazol-1-yl)-2-methylpropan-1-one]
9 | < 100 | O=C(Cc1ccccc1)n1nc(-c2cccnc2)nc1NCc1ccc(F)cc1 [Cmpd 313, 1-(5-[(4-fluorophenyl)methyl]amino-3-(pyridin-3-yl)-1H-1,2,4-triazol-1-yl)-2-phenylethan-1-one]
10 | < 100 | CC(C)CC(=O)n1nc(-c2cccnc2)nc1NCc1ccc(F)cc1 [Cmpd 314, 1-(5-[(4-fluorophenyl)methyl]amino-3-(pyridin-3-yl)-1H-1,2,4-triazol-1-yl)-3-methylbutan-1-one]
11 | < 100 | O=C(CCc1ccccc1)n1nc(-c2cccnc2)nc1NCc1ccc(F)cc1 [Cmpd 315, 1-(5-[(4-fluorophenyl)methyl]amino-3-(pyridin-3-yl)-1H-1,2,4-triazol-1-yl)-3-phenylpropan-1-one]
12 | < 100 | CCCC(=O)n1nc(-c2cccnc2)nc1NCc1ccc(F)cc1 [Cmpd 316, 1-(5-[(4-fluorophenyl)methyl]amino-3-(pyridin-3-yl)-1H-1,2,4-triazol-1-yl)butan-1-one]
13 | < 100 | CC(=O)n1nc(-c2cccnc2)nc1NCc1ccc(F)cc1 [Cmpd 317, 1-(5-[(4-fluorophenyl)methyl]amino-3-(pyridin-3-yl)-1H-1,2,4-triazol-1-yl)ethan-1-one]
14 | < 100 | COc1ccc(CNc2nc(-c3cccnc3)nn2C(=O)C(C)C)cc1 [Cmpd 318, 1-(5-[(4-methoxyphenyl)methyl]amino-3-(pyridin-3-yl)-1H-1,2,4-triazol-1-yl)-2-methylpropan-1-one]
15 | < 100 | COc1ccc(CNc2nc(-c3cccnc3)nn2C(=O)Cc2ccccc2)cc1 [Cmpd 319, 1-(5-[(4-methoxyphenyl)methyl]amino-3-(pyridin-3-yl)-1H-1,2,4-triazol-1-yl)-2-phenylethan-1-one]
16 | < 100 | COc1ccc(CNc2nc(-c3cccnc3)nn2C(=O)CC(C)C)cc1 [Cmpd 320, 1-(5-[(4-methoxyphenyl)methyl]amino-3-(pyridin-3-yl)-1H-1,2,4-triazol-1-yl)-3-methylbutan-1-one]
17 | 100 to 1000 | COc1ccc(CNc2nc(-c3cccnc3)nn2C(=O)CCc2ccccc2)cc1 [Cmpd 321, 1-(5-[(4-methoxyphenyl)methyl]amino-3-(pyridin-3-yl)-1H-1,2,4-triazol-1-yl)-3-phenylpropan-1-one]
18 | < 100 | CCCC(=O)n1nc(-c2cccnc2)nc1NCc1ccc(OC)cc1 [Cmpd 322, 1-(5-[(4-methoxyphenyl)methyl]amino-3-(pyridin-3-yl)-1H-1,2,4-triazol-1-yl)butan-1-one]
19 | 100 to 1000 | COc1ccc(CNc2nc(-c3cccnc3)nn2C(C)=O)cc1 [Cmpd 323, 1-(5-[(4-methoxyphenyl)methyl]amino-3-(pyridin-3-yl)-1H-1,2,4-triazol-1-yl)ethan-1-one]
20 | 100 to 1000 | CCC(=O)n1nc(-c2cccnc2)nc1NCc1ccc(OC)cc1 [Cmpd 324, 1-(5-[(4-methoxyphenyl)methyl]amino-3-(pyridin-3-yl)-1H-1,2,4-triazol-1-yl)propan-1-one]
21 | < 100 | CC(=O)n1nc(-c2cccnc2)nc1NCc1ccc(C)cc1 [Cmpd 325, 1-(5-[(4-methylphenyl)methyl]amino-3-(pyridin-3-yl)-1H-1,2,4-triazol-1-yl)ethan-1-one]
22 | > 1000 | Nc1nc(-c2cccnc2)nn1S(=O)(=O)c1ccccc1 [Cmpd 326, 1-(benzenesulfonyl)-3-(pyridin-3-yl)-1H-1,2,4-triazol-5-amine]
23 | > 1000 | O=S(=O)(c1ccccc1)n1nc(-c2cccnc2)nc1NCc1cccs1 [Cmpd 327, 1-(benzenesulfonyl)-3-(pyridin-3-yl)-N-(thiophen-2-ylmethyl)-1H-1,2,4-triazol-5-amine]
24 | > 1000 | Nc1nc(C(=O)N2CCOCC2)nn1S(=O)(=O)c1ccccc1 [Cmpd 328, 1-(benzenesulfonyl)-3-[(morpholin-4-yl)carbonyl]-1H-1,2,4-triazol-5-amine]
25 | > 1000 | CCS(=O)(=O)n1nc(C(=O)N2CCOCC2)nc1N [Cmpd 329, 1-(ethanesulfonyl)-3-[(morpholin-4-yl)carbonyl]-1H-1,2,4-triazol-5-amine]
26 | < 100 | CSc1nc(-c2ccco2)nn1C(=O)c1ccccc1Cl [Cmpd 330, 1-[(2-chlorophenyl)carbonyl]-3-(furan-2-yl)-5-(methylsulfanyl)-1H-1,2,4-triazole]
27 | < 100 | O=C(c1ccccc1Cl)n1nc(-c2ccco2)nc1NCc1ccc(F)cc1 [Cmpd 331, 1-[(2-chlorophenyl)carbonyl]-N-[(4-fluorophenyl)methyl]-3-(furan-2-yl)-1H-1,2,4-triazol-5-amine]
28 | < 100 | O=C(c1ccccc1Cl)n1nc(-c2cccnc2)nc1NCc1ccc(F)cc1 [Cmpd 332, 1-[(2-chlorophenyl)carbonyl]-N-[(4-fluorophenyl)methyl]-3-(pyridin-3-yl)-1H-1,2,4-triazol-5-amine]

same assay, conditions: inhibition of the protease activity of thrombin

Row | IC50 [nM] | Structure (SMILES)
29 | 100 to 1000 | O=C(c1ccsc1)n1nc(-c2cccs2)nc1NCc1ccccc1 [Cmpd 291, N-benzyl-3-(thiophen-2-yl)-1-[(thiophen-3-yl)carbonyl]-1H-1,2,4-triazol-5-amine]
30 | > 1000 | COc1ccccc1C(=O)N(Cc1ccccc1)c1cc(-c2ccccc2F)n[nH]1 [Cmpd 292, N-benzyl-N-[3-(2-fluorophenyl)-1H-pyrazol-5-yl]-2-methoxybenzamide]
31 | > 1000 | CCN(C)C(=O)c1cc(-c2ccccn2)nn1CCc1ccc(F)cc1 [Cmpd 293, N-ethyl-1-[2-(4-fluorophenyl)ethyl]-N-methyl-3-(pyridin-2-yl)-1H-pyrazole-5-carboxamide]
32 | > 1000 | CCN(C)C(=O)c1cc(-c2ccccn2)n(CCc2ccc(F)cc2)n1 [Cmpd 294, N-ethyl-1-[2-(4-fluorophenyl)ethyl]-N-methyl-5-(pyridin-2-yl)-1H-pyrazole-3-carboxamide]
33 | > 1000 | CCNC(=O)c1cn(-c2ccccn2)nc1NCc1ccc(F)cc1 [Cmpd 295, N-ethyl-3-[(4-fluorophenyl)methyl]amino-1-(pyridin-2-yl)-1H-pyrazole-4-carboxamide]
34 | > 1000 | CCNC(=O)n1nc(-c2cccnc2)nc1NCc1ccc(F)cc1 [Cmpd 296, N-ethyl-5-[(4-fluorophenyl)methyl]amino-3-(pyridin-3-yl)-1H-1,2,4-triazole-1-carboxamide]
35 | > 1000 | CCN(C)C(=O)n1nc(-c2cccnc2)nc1NCc1ccc(F)cc1 [Cmpd 297, N-ethyl-5-[(4-fluorophenyl)methyl]amino-N-methyl-3-(pyridin-3-yl)-1H-1,2,4-triazole-1-carboxamide]
36 | < 100 | O=C(Oc1ccccc1)n1nc(-c2cccnc2)nc1NCc1ccc(F)cc1 [Cmpd 298, phenyl 5-[(4-fluorophenyl)methyl]amino-3-(pyridin-3-yl)-1H-1,2,4-triazole-1-carboxylate]
37 | > 1000 | CC(C)OC(=O)n1nc(-c2cccnc2)nc1NCc1ccc(F)cc1 [Cmpd 299, propan-2-yl 5-[(4-fluorophenyl)methyl]amino-3-(pyridin-3-yl)-1H-1,2,4-triazole-1-carboxylate]
38 | > 1000 | CC(C)(C)OC(=O)n1nc(-c2cccnc2)nc1NCc1ccc(F)cc1 [Cmpd 300, tert-butyl 5-[(4-fluorophenyl)methyl]amino-3-(pyridin-3-yl)-1H-1,2,4-triazole-1-carboxylate]
39 | > 1000 | CC(C)(C)OC(=O)Nc1ccccc1C(=O)n1nc(-c2ccccn2)nc1NCc1ccccc1 [Cmpd 301, tert-butyl N-(2-[5-(benzylamino)-3-(pyridin-2-yl)-1H-1,2,4-triazol-1-yl]carbonylphenyl)carbamate]
40 | > 1000 | CC(=O)c1cn(-c2ccccc2)nc1N(Cc1ccc(F)cc1)C(=O)OC(C)(C)C [Cmpd 302, tert-butyl N-(4-acetyl-1-phenyl-1H-pyrazol-3-yl)-N-[(4-fluorophenyl)methyl]carbamate]
41 | > 1000 | COc1ccccc1C(=O)c1cn(-c2ccccc2)nc1N(Cc1ccc(F)cc1)C(=O)OC(C)(C)C [Cmpd 303, tert-butyl N-[(4-fluorophenyl)methyl]-N-4-[(2-methoxyphenyl)carbonyl]-1-phenyl-1H-pyrazol-3-ylcarbamate]
42 | > 1000 | COc1ccccc1C(O)c1cc(-c2ccccn2)nn1CCc1ccc(F)cc1 (stereo not drawn) [Cmpd 304, 1-[2-(4-fluorophenyl)ethyl]-3-(pyridin-2-yl)-1H-pyrazol-5-yl(2-methoxyphenyl)methanol]
